Data from patent publication US11723899B2, “ALK2 inhibitors for the treatment of anemia” (Incyte Corporation, priority 2020, dated 2023).

Assays:
[1] = Phase 1a single-dose, dose-escalation safety and tolerability study in healthy adult participants; type: in vivo, human; details: single oral dose 10, 25, 50, 100 and 175 mg
Source text: A Phase 1a, double-blind, randomized, placebo-controlled, single-dose, dose-escalation and food-effect study is being conducted with 2-amino-N-(4-hydroxybicyclo-[2.2.2]octan-1-yl)-5-(4-((1R,5S)-3-(tetrahydro-2H-pyran-4-yl)-3-azabicyclo-[3.1.0]hexan-1-yl)phenyl)nicotinamide (“Compound A”) in order to assess the safety, tolerability, and pharmacokinetics (PK) of Compound A when administered orally as a single dose to healthy adult participants.
Compound A has been administered as a single dose at the dose levels of 10 mg, 25 mg, 50 mg, 100 mg, and 175 mg once to 9 healthy participants at each dose level.

[2] = 28-day repeat dose toxicity study in rats; type: in vivo
Source text: (§1) Iron parameters and liver functional tests will be monitored clinically.
(§2) Potential increases in heart rate, skin/hair, and the gastrointestinal track will also be monitored clinically.

[3] = 28-day repeat dose toxicity study in dogs; type: in vivo
Source text: as §1, §2

[4] = tested on: mouse adenine-induced chronic kidney disease model; test: Mouse adenine-induced chronic kidney disease (anemia) model; type: in vivo, male C57BL/6 mice
Source text: The anemia associated with chronic kidney disease has been associated with the hepatic hormone hepcidin (Akchurin et al., Am. J. Physiol. Renal Physiol., 2016). Therefore, reduction of hepcidin levels through inhibition of ALK2 would be a useful therapeutic strategy to combat this aspect of the disease. To test this hypothesis, a murine model of chronic kidney disease that also leads to anemia was used. Orally administered adenine metabolizes to 2,8-dihydroxyadenine, which crystalizes in the tubules of the kidney. Build-up of this metabolite causes kidney injury (nephropathy), inflammation, and subsequently anemia. Mice (typically male C57B/6 mice age 6-10 weeks) are administered adenine (maximum dose of 50 mg/kg QD) by oral gavage for 28 days. During this time, mice are monitored weekly for changes in kidney function and hematology. Anemia onset is tracked by blood draws to measure complete blood count (CBC), which includes red blood cell count, hemoglobin levels, and hematocrit. Drops in these blood parameters would be indicative of anemia. […] Changes in kidney function are detectable within 10 days of adenine administration (Jia et al., BMC Nephrology, 2013; Rahman et al., PLoS One, 2018), and are monitored by analysis of plasma levels of creatinine and blood urea nitrogen (BUN) (Rahman et al., PLoS One, 2018). Increases in plasma creatinine, plasma BUN, and urine protein (>2 fold) are indicative of kidney injury. Body weights are also monitored weekly as a sign of overall fitness.
To investigate the ability of an ALK2 inhibitor to alleviate the anemia brought on by kidney injury, male C57BL/6 mice (Charles River Laboratories) were administered oral adenine (45 mg/kg QD) for 28 days. A cohort of mice were also administered vehicle solution to maintain a normal blood level baseline for comparison (n=10). Mice were monitored weekly for changes in blood parameters by CBC, and for changes in weight. Starting at 14 days post first administration of adenine, mice receiving adenine were dosed with either 30 mg/kg QD (n=8) or 100 mg/kg QD (n=9) Compound A, or vehicle control (n=10). Mice were dosed for 21 days, which includes […] after the cessation of adenine administration. Final analyses were performed one week after the last dose of Compound A, 42 days after adenine administration began. Shown in FIG. 1 are results from this experiment.
A study was performed to investigate the effects of starting the dosing of Compound A later in kidney disease progression at the point when hepcidin levels increase, at […]. Male C57BL/6 mice were administered oral adenine (45 mg/kg QD) for 28 days. A cohort of mice were also administered vehicle solution to maintain a normal blood level baseline for comparison (n=8). Mice were monitored weekly for changes in blood parameters by CBC, and for changes in weight. The mice receiving adenine were dosed with either 30 mg/kg QD (n=8) or 100 mg/kg QD (n=8) Compound A, or vehicle control (n=8). Compound A dosing began at either 14 or 21 days after adenine administration began and continued for 21 days, followed by one more week until blood analysis. The dosing that began on day 14 was termed “prophylactic” as it began before the increase in hepcidin occurs. Dosing that began on day 21 was termed “concomitant” as the dosing coincided with hepcidin level increase. […] Overall, Compound A was able to improve the anemia arising in this model. […]

Nc1ncc(-c2ccc([C@@]34C[C@@H]3CN(C3CCOCC3)C4)cc2)cc1C(=O)NC12CCC(O)(CC1)CC2 [Compound A, 2-amino-N-(4-hydroxybicyclo-[2.2.2]octan-1-yl)-5-(4-((1R,5S)-3-(tetrahydro-2H-pyran-4-yl)-3-azabicyclo-[3.1.0]hexan-1-yl)phenyl)nicotinamide]
severe adverse events (SAEs) ([1]; 9 healthy participants per dose level): No severe adverse events (SAEs) have been observed | severity of adverse events (AEs) ([1]; all dose levels): mild and self-limiting | findings at the no observed adverse effect level (NOAEL) ([2]; at NOAEL): slight increases in iron staining in the liver with no associated increase in liver function tests (LFTs) or microscopic findings in the liver | liver findings at higher doses ([2]; doses above NOAEL): increases in serum alanine aminotransferase (ALT) and aspartate aminotransferase (AST) and microscopic findings in the liver | additional adverse findings considered related to inhibition of ALK3 ([2]; higher doses, species not given): mucosal hypertrophy and hyperplasia in the gastrointestinal tract with associated changes in the mesenteric lymph nodes, anagen phase arrest of hair follicles, and further alterations in iron metabolism | findings at the no observed adverse effect level (NOAEL) ([3]; 28-day repeat dose, at NOAEL): slight increases in iron staining in the liver with no associated increase in liver function tests (LFTs) or microscopic findings in the liver | liver findings at higher doses ([3]; 28-day repeat dose, doses above NOAEL): increases in serum alanine aminotransferase (ALT) and aspartate aminotransferase (AST) and microscopic findings in the liver | additional adverse findings considered related to inhibition of ALK3 ([3]; 28-day repeat dose, higher doses): mucosal hypertrophy and hyperplasia in the gastrointestinal tract with associated changes in the mesenteric lymph nodes, anagen phase arrest of hair follicles, and further alterations in iron metabolism | heart rate ([3]; higher doses): increased heart rates | hemoglobin levels relative to normal range ([4]; 100 mg/kg QD, prophylactic dosing (from day 14), FIG. 2): returned hemoglobin levels that are within the normal range | body weights ([4]; 30 or 100 mg/kg QD for 21 days from day 14, vs adenine without Compound A, FIG. 1 right): increased weights | hemoglobin levels, prophylactic dosing ([4]; 30 or 100 mg/kg QD for 21 days starting day 14 of adenine, FIG. 2 left): dose dependent increase in hemoglobin levels | hemoglobin levels, concomitant dosing ([4]; 30 or 100 mg/kg QD for 21 days starting day 21 of adenine, FIG. 2 right): significant increases in hemoglobin levels that were dose dependent | hemoglobin (HGB) levels ([4]; day 42, 30 or 100 mg/kg QD for 21 days starting 14 days after first adenine (45 mg/kg QD, 28 days), vs adenine + vehicle, FIG. 1 left): dose-dependently improved hemoglobin (HGB) levels
